Test results taken from patent publication US12109176B1, “Effect of glycerol on biofilm forming bacteria and fungi that changes the microbes sensitivity to pro and anti-biofilm non-toxic, non-bonded plasma amino acids and amino acid derivatives” (priority 2023, dated 2024).
“Also recorded” adds a separate entry of the source.

Assays:
[1] = test system: bacterial and fungal biofilm; assay: In vitro testing on bacterial and fungal biofilm (assay not told apart); type: cell-based; details: in vitro testing
Procedure: (§1) Two types of biofilm assays were performed: an inhibition assay and a disruption assay. The inhibition assay assesses the compound's ability to prevent biofilm development, while the disruption assay assesses the compound's ability to break up an existing mature biofilm.
(§2) All bacterial biofilm solutions were prepared in Tryptic Soy Broth (TSB), supplemented with 1% glucose (henceforth referred to as TSB-G). All subsequent procedures were performed in a manner that maintained sterility. A solution of each amino acid or an amino acid derivative to be tested was prepared in weight to volume concentrations ranging from 0.1-5.0%. Amino acids and amino acid derivatives were also tested in combinations. Compound solutions were homogenized with gentle agitation in the dark (4° C., 24 hours) before use.
(§3) 32 Amino acids and 2 amino acid derivatives of the amino acid serine that occur freely in human blood were tested. […] 31 of the 32 amino acids that were tested were the L-Isomers. Glycine has no stereoisomers. The 2 amino acid derivatives, ethanolamine and phosphoethanolamine were also tested. All biofilm assays were performed using 384-well non-tissue culture-treated polystyrene plates. The fungal species tested are as follows: Candida albicans, Candida guilliermondii, Candida parapsilosis, Candida glabrata, Candida tropicalis and Candida dubliniensis. The bacterial species tested are as follows: Staphylococci (standard wild type and methicillin-resistant strain USA300), Escherichia coli, Pseudomonas aeruginosa and Staphylococcus epidermidis.
(§4) Fungal strains were streaked on Yeast Peptone Dextrose (YPD) agar plates and incubated at 30° C. for 48 hours. A single colony from each strain to be tested was inoculated into YPD broth and grown for 12 hours at 30° C., shaking at 225 rpm. […] The cells were allowed to adhere to the plate for 90 minutes at 37° C. with shaking (350 rpm). […] The plate was further incubated for 24 hours at 37° C. with shaking (350 rpm). Media was carefully aspirated and the biofilm was measured by optical density at 600 nm. […] The cells were allowed to adhere to the plate for 90 minutes at 37° C. with shaking (350 rpm). […] The plate was further incubated for 24 hours at 37° C. with shaking (350 rpm). […] The plate was further incubated for 24 hours at 37° C. with shaking (350 rpm). Media was carefully aspirated, and the biofilm was measured by optical density at 600 nm.
(§5) Bacterial strains were streaked on Blood Agar plates (5% sheep blood in Tryptic Soy Broth) and incubated at 37° C. for 24 hours. A single colony from each strain to be tested was inoculated in a TSB broth and grown for 12 hours, at 37° C. with shaking (225 rpm). For the bacterial biofilm inhibition assays, 1 μL of saturated overnight cell culture was added to either 80 μL of TSB-G, or TSB-G supplemented with the amino acid compound solution to be tested, in a 384-well plate. The cells were allowed to adhere to the plate for 60 minutes at 37° C. without shaking. The media was carefully aspirated and 80 μL of TSB-G, or TSB-G supplemented with the amino acid compound solution was added to the plate. The plate was further incubated for 24 hours at 37° C. without shaking. Media was carefully aspirated and the biofilm was measured by optical density at 600 nm. Eight or twelve replicates were performed for each tested condition and the reported values are normalized to the control (TSB-G media only). For the bacterial biofilm disruption assays, 80 µL of TSB-G was added to the plate, along with 1 μL of overnight cell culture. The cells were allowed to adhere to the plate for 60 minutes at 37° C. with no shaking. The media was carefully aspirated and 80 μL of TSB-G was added to the plate. The plate was further incubated for 24 hours at 37° C. with no shaking. Media was carefully aspirated from the mature biofilm and 80 μL of TSB-G, or TSB-G supplemented with the amino acid to be tested, was gently added to the plate.

[2] = test system: fungal biofilm (C. albicans); assay: Fungal biofilm disruption assay; type: cell-based, Candida albicans
Procedure: as §1, §2, §3, §4

[3] = test system: bacterial (S. aureus) biofilm and fungal biofilm (C. albicans); assay: Biofilm inhibition assay, bacterial and fungal taken together; type: cell-based; details: symbol marks the assay
Procedure: as §1, §2, §3, §4, §5

bacterial biofilm = assay: In vitro testing on bacterial biofilm (inhibition and/or disruption); type: cell-based
Procedure: as §1, §2, §3
(§6) Bacterial strains were streaked on Blood Agar plates (5% sheep blood in Tryptic Soy Broth) and incubated at 37° C. for 24 hours. A single colony from each strain to be tested was inoculated in a TSB broth and grown for 12 hours, at 37° C. with shaking (225 rpm). For the bacterial biofilm inhibition assays, 1 μL of saturated overnight cell culture was added to either 80 μL of TSB-G, or TSB-G supplemented with the amino acid compound solution to be tested, in a 384-well plate. The cells were allowed to adhere to the plate for 60 minutes at 37° C. without shaking. The media was carefully aspirated and 80 μL of TSB-G, or TSB-G supplemented with the amino acid compound solution was added to the plate. The plate was further incubated for 24 hours at 37° C. without shaking. Media was carefully aspirated and the biofilm was measured by optical density at 600 nm. Eight or twelve replicates were performed for each tested condition and the reported values are normalized to the control (TSB-G media only). For the bacterial biofilm disruption assays, 80 µL of TSB-G was added to the plate, along with 1 μL of overnight cell culture. The cells were allowed to adhere to the plate for 60 minutes at 37° C. with no shaking. The media was carefully aspirated and 80 μL of TSB-G was added to the plate. The plate was further incubated for 24 hours at 37° C. with no shaking. Media was carefully aspirated from the mature biofilm and 80 μL of TSB-G, or TSB-G supplemented with the amino acid to be tested, was gently added to the plate. The plate was further incubated for 24 hours at 37° C. without shaking. Media was aspirated and the biofilm was measured by optical density at 600 nm. Twelve replicates were performed for each tested condition and the reported values are normalized to the control (TSB-G media only).

[4] = test system: fungal biofilm (C. albicans); assay: Fungal biofilm inhibition assay; type: cell-based, Candida albicans
Procedure: as §1, §2, §3, §4

fungal biofilm = assay: In vitro testing on fungal biofilm (inhibition and/or disruption); type: cell-based
Procedure: as §1, §2, §3, §4

[5] = test system: bacterial (S. aureus) biofilm; assay: Bacterial biofilm inhibition assay; type: cell-based, Staphylococcus aureus
Procedure: as §1, §2, §3, §6

[6] = test system: bacterial (S. aureus) biofilm; assay: Bacterial biofilm disruption assay; type: cell-based, Staphylococcus aureus
Procedure: as §1, §2, §3, §6

[7] = Table D, Neutral = no effect on the biofilm
[8] = Table E, in the absence of an infusion of glycerol
[9] = Table F, in the presence of a sufficient concentration of glycerol
[10] = in the presence of a therapeutic concentration of glycerol

Row | Compound | Neutral (square: Inhibition Biofilm Assay) [3, 7] | Neutral (square: Inhibition Biofilm Assay) [3, 8] | Neutral (square: Inhibition Biofilm Assay) [3, 9] | effect on bacterial biofilm (in words) (bacterial biofilm; in vitro testing) | effect on fungal biofilm (in words) (fungal biofilm; in vitro testing) | Reduce or Inhibit B Biofilm (dots: Disruption Biofilm Assay) ([6]; Table D, 0.1 to 5.0%) | Reduce or Inhibit B Biofilm (dots: Disruption Biofilm Assay) [6, 9] | also measured
1 | N[C@@H](Cc1ccc(O)cc1)C(=O)O [Tyrosine, L-tyrosine] | – | – | – | – | – | – | – | effect on bacterial and fungal biofilm (in words) [1]: neutral effect on biofilm; effect on bacterial and fungal biofilm (in words) ([1]; listed as tyrosine): neutral, having no effect on biofilm
2 | C[C@H](N)C(=O)O [Alanine, L-alanine] | ▪ (Single square [ie. ▪] signifies little effect on the Inhibition Biofilm Assay (from about 10 to less than 30%)) | ▪ (Single square [ie. ▪] signifies little effect on the Inhibition Biofilm Assay (from about 10 to less than 30%)) | ▪ (Single square [ie. ▪] signifies little effect on the Inhibition Biofilm Assay (from about 10 to less than 30%)) | promoted bacterial biofilm formation | – | – | – | Reduce or Inhibit F Biofilm (dots: Disruption Biofilm Assay) ([2]; Table D, 0.1 to 5.0%): ● (Single dot [ie. ●] signifies little effect on the Disruption Biofilm Assay (from about 10 to less than 30%))
3 | NCCO [Ethanolamine, ethanolamine] | – | – | – | – | antifungal biofilm effect | – | – | Reduce or Inhibit F Biofilm (squares: Inhibition Biofilm Assay) ([4]; Table D, 0.1 to 5.0%): ▪ (Single square [ie. ▪] signifies little effect on the Inhibition Biofilm Assay (from about 10 to less than 30%)); Reduce or Inhibit F Biofilm (squares: Inhibition Biofilm Assay) [4, 9]: ▪ (Single square [ie. ▪] signifies little effect on the Inhibition Biofilm Assay (from about 10 to less than 30%))
4 | N[C@@H](Cc1c[nH]cn1)C(=O)O [Histidine, L-histidine] | ▪ (Single square [ie. ▪] signifies little effect on the Inhibition Biofilm Assay (from about 10 to less than 30%)) | ▪ (Single square [ie. ▪] signifies little effect on the Inhibition Biofilm Assay (from about 10 to less than 30%)) | ▪ (Single square [ie. ▪] signifies little effect on the Inhibition Biofilm Assay (from about 10 to less than 30%)) | – | – | – | – | effect on bacterial and fungal biofilm (in words) [1]: neutral, having no effect on biofilm; also recorded: neutral
5 | O=C(O)[C@@H]1C[C@@H](O)CN1 [Hydroxyproline, Trans-4-hydroxy-L-proline] | – | – | – | antibacterial biofilm effect | antifungal biofilm effects | ● (Single dot [ie. ●] signifies little effect on the Disruption Biofilm Assay (from about 10 to less than 30%)) | ● (Single dot [ie. ●] signifies little effect on the Disruption Biofilm Assay (from about 10 to less than 30%)) | Reduce or Inhibit F Biofilm (squares: Inhibition Biofilm Assay) ([4]; Table D, 0.1 to 5.0%): ▪ (Single square [ie. ▪] signifies little effect on the Inhibition Biofilm Assay (from about 10 to less than 30%)); Reduce or Inhibit F Biofilm (squares: Inhibition Biofilm Assay) [4, 9]: ▪ (Single square [ie. ▪] signifies little effect on the Inhibition Biofilm Assay (from about 10 to less than 30%)); Reduce or Inhibit B Biofilm (squares: Inhibition Biofilm Assay) ([5]; Table D, 0.1 to 5.0%): ▪ (Single square [ie. ▪] signifies little effect on the Inhibition Biofilm Assay (from about 10 to less than 30%)); Reduce or Inhibit B Biofilm (squares: Inhibition Biofilm Assay) [5, 9]: ▪ (Single square [ie. ▪] signifies little effect on the Inhibition Biofilm Assay (from about 10 to less than 30%))
6 | N[C@@H](COP(=O)(O)O)C(=O)O [Phosphoserine, O-phospho-L-serine] | ▪ (Single square [ie. ▪] signifies little effect on the Inhibition Biofilm Assay (from about 10 to less than 30%)) | ▪ (Single square [ie. ▪] signifies little effect on the Inhibition Biofilm Assay (from about 10 to less than 30%)) | ▪ (Single square [ie. ▪] signifies little effect on the Inhibition Biofilm Assay (from about 10 to less than 30%)) | antibacterial biofilm effect | antifungal biofilm effects | ● (Single dot [ie. ●] signifies little effect on the Disruption Biofilm Assay (from about 10 to less than 30%)) | ● (Single dot [ie. ●] signifies little effect on the Disruption Biofilm Assay (from about 10 to less than 30%)) | Reduce or Inhibit F Biofilm (dots: Disruption Biofilm Assay) ([2]; Table D, 0.1 to 5.0%): ● (Single dot [ie. ●] signifies little effect on the Disruption Biofilm Assay (from about 10 to less than 30%)); Reduce or Inhibit F Biofilm (dots: Disruption Biofilm Assay) [2, 9]: ● (Single dot [ie. ●] signifies little effect on the Disruption Biofilm Assay (from about 10 to less than 30%))
7 | CC(C)[C@H](N)C(=O)O [Valine, L-valine] | – | – | – | anti-bacterial biofilm effect | supported fungal biofilm formation; also recorded: pro-fungal biofilm effect; also recorded: promoted fungal biofilm formation | ● (Single dot [ie. ●] signifies little effect on the Disruption Biofilm Assay (from about 10 to less than 30%)) | ● (Single dot [ie. ●] signifies little effect on the Disruption Biofilm Assay (from about 10 to less than 30%)) | Promote F Biofilm (dots: Disruption Biofilm Assay) [2, 8]: ● (Single dot [ie. ●] signifies little effect on the Disruption Biofilm Assay (from about 10 to less than 30%)); effect on bacterial biofilm (in words) (bacterial biofilm; [10]): anti-bacterial biofilm effect; effect on bacterial biofilm (in words) (bacterial biofilm; in the presence of a therapeutic concentration of glycerol, listed as valine): anti-bacterial biofilm effect became dominant; effect on fungal biofilm (in words) (fungal biofilm; [10]): lost its pro-fungal biofilm effect; effect on fungal biofilm (in words) (fungal biofilm; in vitro testing, listed as valine): supported the formation of biofilm made by biofilm-forming fungi
8 | N[C@@H](CCS)C(=O)O [Homocysteine, L-homocysteine] | – | – | – | – | antifungal biofilm effects | – | – | –
